Measurements taken from patent US20260294874A1, “COMPOSITIONS COMPRISING MODULATORS OF RIBONUCLEOPROTEIN GRANULE FORMATION AND DISSOLUTION AND METHODS OF USE THEREOF” (University of Virginia Patent Foundation, priority 2023, published 2026).
“And” between values parts separate entries of the source, which are not always exact repeats. Identical values can stand only once. “Also recorded” adds a separate entry of the source. Like-named read-outs stand apart in the source and are kept apart here.

Target: T1, recombinant EDC3 (Homo sapiens, UniProt Q96F86)
T1 construct: FLAG; expressed in transfected cells; host or cells: HEK293T
T1 sequence (Q96F86 1-508): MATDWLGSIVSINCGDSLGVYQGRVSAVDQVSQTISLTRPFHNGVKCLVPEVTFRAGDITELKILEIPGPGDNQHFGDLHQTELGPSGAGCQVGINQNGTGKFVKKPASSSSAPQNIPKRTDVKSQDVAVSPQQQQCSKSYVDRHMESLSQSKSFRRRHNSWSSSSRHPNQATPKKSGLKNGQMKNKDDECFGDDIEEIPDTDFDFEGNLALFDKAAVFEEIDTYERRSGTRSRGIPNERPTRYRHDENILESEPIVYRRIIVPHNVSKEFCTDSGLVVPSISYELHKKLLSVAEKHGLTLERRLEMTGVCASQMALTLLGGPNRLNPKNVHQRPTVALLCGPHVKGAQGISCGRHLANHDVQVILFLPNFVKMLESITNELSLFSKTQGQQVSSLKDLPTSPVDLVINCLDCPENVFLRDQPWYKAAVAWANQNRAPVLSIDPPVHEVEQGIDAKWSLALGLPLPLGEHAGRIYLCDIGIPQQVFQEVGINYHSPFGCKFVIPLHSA
Test: Competitive gel-based ABPP, HHS-465 probe labeling of recombinant EDC3 in HEK293T cells
Format: cell-based
Conditions: for inhibition of HHS-465 probe labeling of recombinant EDC3 (in words): 25 μM, 2 h (FIG. 4F), 0.1-100 μM for concentration dependence (FIG. 4D)
Description: FIGS. 4A-4F. Discovery of a SuTEx ligand for the hyper-reactive EDC3 Y475 site. (FIG. 4A) Overlap of liganded sites from SuTEx PB modulators with reported RNA granule induction-sensitive lysine and tyrosine sites (RISKYs; Ciancone et al., 2022). The five overlapping sites were further compared to previously reported hyper-RISKY sites (Ciancone et al., 2022) resulting in the identification of the tyrosine-475 (Y475) site on EDC3. (FIG. 4B) Representative immunofluorescence images depicting decreased PBs and increased SGs in AHL-030-treated cells under stress conditions. EKT235 is shown as a negative control. See FIGS. 8 and 9 for additional details. (FIG. 4C) Representative MS1 extracted ion chromatograms (EICs) showing EDC3 Y475 (i.e., amino acid 2 of the peptide sequence […]; SEQ ID NO: 1, which corresponds to amino acids 474-500 of the human enhancer of mRNA-decapping protein 3 isoform 1 polypeptide of GENBANK® Accession No. NP_001135915.1) is liganded by AHL-030 but not EKT235 [SILAC ratio or SR>2 for DMSO vehicle (light, red)/SuTEx fragment ligand (heavy, blue) treatment conditions]. Enrichment (HHS-465/DMSO) and 1:1 (HHS-465/HHS-465) controls are shown. SRs are calculated as the integrated area under the curve ratio of light-to-heavy peptide. Data are representative of n=2-3 biologically independent replicates. […] EDC3-expressing HEK293T cells were pretreated with varying concentrations of AHL-030 (0.1-100 μM, 2 hours) followed by lysis and probe labeling of soluble proteomes with HHS-465 (100 μM, 1 h, RT). The in situ IC50 for EDC3 probe labeling inhibition by AHL-030 was estimated to be ~6 μM. […] Data shown are mean±SEM and representative of n=3 biologically independent replicates. […] Western blots comparing recombinant expression of EDC3 (α-FLAG) and loading controls (α-GAPDH) are shown. Data are representative of n=2 biologically independent replicates.
Among the candidate PB-modulating SuTEx compounds, we focused on AHL-030 because of its PB-inhibitory, SG-enhancing activity in stressed cells and ability to ligand the EDC3 Y475 site (SR >2; FIGS. 4B and 4C). Importantly, we identified a restricted number of reproducibly liganded sites (7 in total) in addition to EDC3 Y475 in chemoproteomic profiling studies of AHL-030 (FIG. 12). We further confirmed AHL-030 as an EDC3 ligand using competitive activity-based protein profiling (ABPP; Grams & Hsu, 2022). Recombinant EDC3-expressing HEK293T cells were treated with a panel of RNP granule modulators including AHL-030 and the negative control compound EKT235 to evaluate structure-activity relationships (SAR, 25 μM compounds, 2 h). Cells were lysed and soluble proteomes labeled with HHS-465 (100 μM, 1 h, RT) followed by CuAAC with rhodamine-azide, SDS-PAGE and in-gel fluorescence scanning. […] Using the in vitro IC50, we calculated the lipophilic efficiency (LipE) of AHL-030 to be ~7, which falls in the range of acceptable lipophilicity in relation to potency (Leeson & Springthorpe, 2007).

| inhibition of HHS-465 probe labeling of recombinant EDC3 (in words) (HHS-465 100 μM, 1 h, RT) | pIC50/EC50: pIC50 (AHL-030, used for LipE) | IC50 (IC50 (AHL-030), EDC3 probe labeling, read-out: IC50/EC50 (M): IC50) [M] | IC50 (in situ, 0.1-100 μM, 2 h, HHS-465 100 μM, 1 h, RT, n=3, read-out: IC50 for EDC3 probe labeling inhibition) | SMILES |
| --- | --- | --- | --- | --- |
| largely inactive | – | – | – | CC(C)c1cc(C(C)C)c(S(=O)(=O)n2cc(-c3ccc(C(F)(F)F)cc3)nn2)c(C(C)C)c1 [AHL-003] |
| largely inactive | – | – | – | N#Cc1ccc(S(=O)(=O)n2cc(-c3cccc(Cl)c3)nn2)cc1 [EKT231, 4-((4-(3-Chlorophenyl)-1H-1,2,3-triazol-1-yl)sulfonyl)benzonitrile] |

| SMILES | inhibition of HHS-465 probe labeling of recombinant EDC3 (in words) (HHS-465 100 μM, 1 h, RT) | pIC50/EC50: pIC50 (AHL-030, used for LipE) | IC50 (IC50 (AHL-030), EDC3 probe labeling, read-out: IC50/EC50 (M): IC50) [M] | IC50 (in situ, 0.1-100 μM, 2 h, HHS-465 100 μM, 1 h, RT, n=3, read-out: IC50 for EDC3 probe labeling inhibition) |
| --- | --- | --- | --- | --- |
| COc1ccc(S(=O)(=O)n2cc(CS(C)(=O)=O)nn2)cc1 [AHL-030, 1-((4-Methoxyphenyl)sulfonyl)-4-((methylsulfonyl)methyl)-1H-1,2,3-triazole] | blocked HHS-465 probe labeling of EDC3 in a concentration-dependent manner; also recorded: concentration-dependent binding to recombinant EDC3; also recorded: competition of HHS-465 probe labeling | 5.3 | 5.6e-06 | 6e-06 M and ~6e-06 M |
